For assay [1], the target named is T1, Alpha-1A adrenergic receptor (Rattus norvegicus, UniProt P43140).
T1 sequence (P43140 whole entry): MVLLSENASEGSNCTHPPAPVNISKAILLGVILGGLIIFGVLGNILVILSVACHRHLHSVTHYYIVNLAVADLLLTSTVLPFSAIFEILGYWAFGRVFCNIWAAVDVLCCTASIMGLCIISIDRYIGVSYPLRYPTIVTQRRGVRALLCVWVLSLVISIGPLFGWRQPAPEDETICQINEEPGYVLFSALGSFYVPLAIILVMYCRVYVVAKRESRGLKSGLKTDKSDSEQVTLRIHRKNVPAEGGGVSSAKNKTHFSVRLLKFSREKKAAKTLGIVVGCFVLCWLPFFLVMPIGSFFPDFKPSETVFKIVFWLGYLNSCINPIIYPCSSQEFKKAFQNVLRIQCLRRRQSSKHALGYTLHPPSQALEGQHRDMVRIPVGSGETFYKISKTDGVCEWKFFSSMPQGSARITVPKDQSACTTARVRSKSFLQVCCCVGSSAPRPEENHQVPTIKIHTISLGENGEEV
The assay can be described thus: DRUGMATRIX: Alpha-1A adrenergic receptor radioligand binding (ligand: prazosin). Format: cell membranes, Wistar, Submaxillary gland, Membrane. Conditions: Not Active = under 50% inhibition at 10 µM.

Assay [2] deals with T2, Alpha-1B adrenergic receptor (Rattus norvegicus, UniProt P15823).
T2 sequence (P15823 whole entry): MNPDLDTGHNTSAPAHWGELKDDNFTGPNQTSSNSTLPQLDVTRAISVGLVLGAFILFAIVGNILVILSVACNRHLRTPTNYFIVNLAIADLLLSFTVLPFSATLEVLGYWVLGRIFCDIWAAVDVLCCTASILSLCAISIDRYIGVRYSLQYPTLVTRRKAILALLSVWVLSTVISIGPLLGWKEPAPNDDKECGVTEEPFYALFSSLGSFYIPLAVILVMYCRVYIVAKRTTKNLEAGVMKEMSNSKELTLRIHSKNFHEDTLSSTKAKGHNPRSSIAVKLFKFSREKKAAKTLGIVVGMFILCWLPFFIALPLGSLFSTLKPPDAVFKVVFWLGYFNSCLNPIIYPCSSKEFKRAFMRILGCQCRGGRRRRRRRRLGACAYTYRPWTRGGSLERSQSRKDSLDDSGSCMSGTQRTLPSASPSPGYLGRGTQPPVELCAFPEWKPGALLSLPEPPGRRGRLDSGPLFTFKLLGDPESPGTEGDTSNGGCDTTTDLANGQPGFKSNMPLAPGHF
The assay can be described thus: DRUGMATRIX: Alpha-1B adrenergic receptor radioligand binding (ligand: prazosin). The assay is classed as cell membranes, Wistar, Liver, Membrane. The conditions noted are these: Not Active = under 50% inhibition at 10 µM.

The nature of assay [3]: DRUGMATRIX: Calcium Channel Type L, Benzothiazepine radioligand binding (ligand: [3H] Diltiazem). Format: cell membranes, Rattus norvegicus, Wistar, Brain, Membrane. Conditions: Not Active = under 50% inhibition at 10 µM.
The nature of assay [4]: DRUGMATRIX: Calcium Channel Type L, Phenylalkylamine radioligand binding (ligand: [3H] (-)-Desmethoxyverapamil (D-888)). The assay is classed as cell membranes, Rattus norvegicus, Wistar, Brain, Membrane. The conditions noted are these: Not Active = under 50% inhibition at 10 µM.
Assay [5] has as its target Melanocortin receptor 4 (Homo sapiens, UniProt P32245). The assay is classed as cell membranes, HEK293, Membrane. The conditions noted are these: hek293. Note: in other assays of this panel Not Active means under 50% inhibition at 10 µM.

Sequence of Melanocortin receptor 4 (P32245 whole entry): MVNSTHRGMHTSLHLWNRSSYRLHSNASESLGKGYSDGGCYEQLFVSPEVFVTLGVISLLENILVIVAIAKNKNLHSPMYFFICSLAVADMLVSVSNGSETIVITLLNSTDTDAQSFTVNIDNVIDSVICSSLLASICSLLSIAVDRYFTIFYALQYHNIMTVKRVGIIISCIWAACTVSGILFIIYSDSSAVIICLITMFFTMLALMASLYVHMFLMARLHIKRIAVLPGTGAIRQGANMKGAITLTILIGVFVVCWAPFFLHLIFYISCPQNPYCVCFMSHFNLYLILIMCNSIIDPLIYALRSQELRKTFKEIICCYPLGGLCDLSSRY

As for `CC(=O)O[C@H]1C(=O)[C@@]2(C)[C@H]([C@H](OC(=O)c3ccccc3)[C@]3(O)C[C@H](OC(=O)[C@H](O)[C@@H](NC(=O)c4ccccc4)c4ccccc4)C(C)=C1C3(C)C)[C@]1(OC(C)=O)CO[C@@H]1C[C@@H]2O` [PACLITAXEL], the IC50 result in assay [1], in assay [2], in assay [3], in assay [4] and in assay [5] was “Not Active” in each case. Besides, the Ki result in assay [3] and in assay [4] was “Not Active” in each case.
With `C[n+]1ccc(-c2cc[n+](C)cc2)cc1.[Cl-].[Cl-]` [PARAQUAT DICHLORIDE], the half-maximal inhibitory concentration (IC50) entry in assay [1], in assay [2], in assay [3], in assay [4] and in assay [5] was “Not Active” throughout. In addition, the Ki result in assay [3] and in assay [4] was “Not Active” throughout.
`CC(C)NCC(O)COc1cccc2[nH]ccc12` (centres undefined) [PINDOLOL]: the half-maximal inhibitory concentration (IC50) result in assay [1], in assay [2], in assay [3], in assay [4] and in assay [5] was “Not Active” in each case. For the same compound, the Ki entry in assay [3] and in assay [4] was “Not Active” throughout.
For `CCn1cc(C(=O)O)c(=O)c2cnc(N3CCCC3)nc21` [PIROMIDIC ACID], the 50% inhibitory concentration (IC50) result in assay [1], in assay [2], in assay [3], in assay [4] and in assay [5] was “Not Active” throughout. Further, the Ki result in assay [3] and in assay [4] was “Not Active” throughout.
`C[n+]1ccccc1/C=N/O.[Cl-]` [PRALIDOXIME CHLORIDE]: the IC50 entry in assay [1], in assay [2], in assay [3], in assay [4] and in assay [5] was “Not Active” in each case. Further, the Ki entry in assay [3] and in assay [4] was “Not Active” throughout.
On to `C[C@]12C=CC(=O)C=C1CC[C@@H]1[C@@H]2[C@@H](O)C[C@@]2(C)[C@H]1CC[C@]2(O)C(=O)CO` [PREDNISOLONE], for which the half-inhibitory concentration (IC50) entry in assay [1], in assay [2], in assay [3], in assay [4] and in assay [5] was “Not Active” in each case. The Ki entry in assay [3] and in assay [4] was “Not Active” throughout.
As for `CC(=O)[C@H]1[C@H](C#N)C[C@H]2[C@@H]3CC=C4C[C@@H](O)CC[C@]4(C)[C@H]3CC[C@@]21C` [PREGNENOLONE CARBONITRILE], the IC50 entry in assay [1], in assay [2], in assay [3], in assay [4] and in assay [5] was “Not Active” in each case. In addition, the inhibitory constant (Ki) result in assay [3] and in assay [4] was “Not Active” each time.
For the compound `CCCN(CCC)S(=O)(=O)c1ccc(C(=O)O)cc1` [PROBENECID], the half-inhibitory concentration (IC50) result in assay [1], in assay [2], in assay [3], in assay [4] and in assay [5] was “Not Active” throughout. Besides, the Ki entry in assay [3] and in assay [4] was “Not Active” each time.
For `CCCOc1ccc(C(=O)OCCN(CC)CC)cc1N` [PROPARACAINE], the IC50 entry in assay [1], in assay [2], in assay [3], in assay [4] and in assay [5] was “Not Active” each time. Further, the Ki result in assay [3] and in assay [4] was “Not Active” throughout.
Take `CC(C)c1cccc(C(C)C)c1O` [PROPOFOL]: the half-maximal inhibitory concentration (IC50) result in assay [1], in assay [2], in assay [3], in assay [4] and in assay [5] was “Not Active” throughout. Also, the Ki entry in assay [3] and in assay [4] was “Not Active” throughout.
Turning to `C[C@@H]1O[C@@H](O[C@@H]2C=C3CC[C@@H]4[C@H](CC[C@]5(C)[C@@H](c6ccc(=O)oc6)CC[C@]45O)[C@@]3(C)CC2)[C@H](O)[C@H](O)[C@H]1O` [PROSCILLARIDIN], the concentration for half-maximal inhibition (IC50) result in assay [1], in assay [2], in assay [3], in assay [4] and in assay [5] was “Not Active” throughout. The inhibition constant Ki result in assay [3] and in assay [4] was “Not Active” in each case.
Turning to `Oc1cccc(O)c1O` [PYROGALLOL], the half-maximal inhibitory concentration (IC50) result in assay [1], in assay [2], in assay [3], in assay [4] and in assay [5] was “Not Active” in each case. In addition, the inhibition constant (Ki) entry in assay [3] and in assay [4] was “Not Active” in each case.
Consider AURANOFIN, for which the IC50 result in assay [1], in assay [2], in assay [3], in assay [4] and in assay [5] was “Not Active” throughout. For the same compound, the Ki result in assay [1], in assay [2], in assay [3], in assay [4] and in assay [5] was “Not Active” throughout.
Take GADOPENTETATE DIMEGLUMINE: the IC50 result in assay [1], in assay [2], in assay [3], in assay [4] and in assay [5] was “Not Active” throughout. Also, the Ki result in assay [1], in assay [2], in assay [3], in assay [4] and in assay [5] was “Not Active” in each case.
For the compound GENTAMICIN, the half-inhibitory concentration (IC50) result in assay [1], in assay [2], in assay [3], in assay [4] and in assay [5] was “Not Active” throughout. The Ki entry in assay [1], in assay [2], in assay [3], in assay [4] and in assay [5] was “Not Active” each time.
As for GRAMICIDIN, the concentration for half-maximal inhibition (IC50) (as a rule, the concentration needed to halve the response being measured) in assay [1] was “Not Active”; in assay [2] it was “Not Active”; in assay [3], “Not Active”; in assay [4], “Not Active”; in assay [5] (read-out: IC50) it was 3.31 µM. Moreover, the inhibition constant (Ki) (in general, a measure of affinity in units of concentration, obtained from inhibition or displacement) in assay [1] was “Not Active”; in assay [2] it was “Not Active”; in assay [3] it was “Not Active”; in assay [4], “Not Active”; in assay [5] (read-out: Ki), 3.19 µM.
As to NYSTATIN, the half-maximal inhibitory concentration (IC50) result in assay [1], in assay [2], in assay [3], in assay [4] and in assay [5] was “Not Active” each time. In addition, the inhibition constant (Ki) result in assay [1], in assay [2], in assay [3], in assay [4] and in assay [5] was “Not Active” in each case.

(Values after ChEMBL document CHEMBL1909046, “DrugMatrix in vitro pharmacology data”.)
